Experiment: Example 1: liver biomarkers (total bilirubin, ALT, AST, ALP) in short bowel syndrome patients, every four weeks for 24 weeks; also sorted by >5% change from baseline
Type: in vivo, Human
Details: for ALT (SGPT) change from baseline >5%, percent of patients / ALT (SGPT) change from baseline −5% <= and <=5%, number of patients / ALT (SGPT) change from baseline −5% <= and <=5%, percent of patients / AST (SGOT) change from baseline <−5%, number of patients / AST (SGOT) change from baseline <−5%, percent of patients / AST (SGOT) change from baseline >5%, number of patients / AST (SGOT) change from baseline >5%, percent of patients / AST (SGOT) change from baseline −5% <= and <=5%, number of patients / AST (SGOT) change from baseline −5% <= and <=5%, percent of patients / TOTAL BILIRUBIN change from baseline <−5%, number of patients / TOTAL BILIRUBIN change from baseline <−5%, percent of patients / TOTAL BILIRUBIN change from baseline >5%, number of patients / TOTAL BILIRUBIN change from baseline >5%, percent of patients / TOTAL BILIRUBIN change from baseline −5% <= and <=5%, number of patients / TOTAL BILIRUBIN change from baseline −5% <= and <=5%, percent of patients / ALKALINE PHOSPHATASE change from baseline <−5%, number of patients / ALKALINE PHOSPHATASE change from baseline <−5%, percent of patients / ALKALINE PHOSPHATASE change from baseline >5%, number of patients / ALKALINE PHOSPHATASE change from baseline >5%, percent of patients / ALKALINE PHOSPHATASE change from baseline −5% <= and <=5%, number of patients / ALKALINE PHOSPHATASE change from baseline −5% <= and <=5%, percent of patients / ALT (SGPT) change from baseline <−5%, number of patients / ALT (SGPT) change from baseline <−5%, percent of patients / ALT (SGPT) change from baseline >5%, number of patients: 0.1 mg/kg/day
Procedure: Human patients with short bowel syndrome were divided into three groups: a control group (16 total individuals) to receive placebo, an experimental group (35 total individuals) to receive teduglutide at 0.05 mg/kg/day throughout the study, and an experimental group (32 total individuals) to receive teduglutide at 0.1 mg/kg/day throughout the study. Patients were treated by subcutaneous injection of placebo or the appropriate dose of teduglutide. As individuals with short bowel syndrome are likely to experience associated liver and kidney disease, known biomarkers of liver and kidney function were monitored every four weeks, for 24 weeks. The liver biomarkers tested included total bilirubin, ALT and AST and ALP. The kidney biomarkers tested included urea nitrogen, creatinine and GFR. Before administration of placebo or teduglutide, diagnostic biomarker levels were tested to establish a baseline for each individual.
To visualize the effect of GLP-2 on the levels of the diagnostic biomarkers, the average change from baseline was calculated for the placebo and teduglutide treated groups for each visit after a baseline was established. The average change from baseline of each group is depicted in FIGS. 1-7. The numerical figures for each diagnostic biomarker at each time point are depicted in Table 1.
The efficacy of teduglutide in treating liver dysfunction was further tested by sorting the data into two groups: individuals with abnormal baseline values of liver diagnostic biomarkers; and individuals with normal baseline values of liver diagnostic biomarkers. The mean diagnostic biomarker change from baseline for these two groups is shown for ALT (FIGS. 5 and 6) and AST (FIGS. 7 and 8). […] These changes were significant when compared to baseline levels for the group, and when compared to placebo (see FIGS. 5 and 7).
The raw data for this sorting is reproduced in Table 2 below.

CC[C@H](C)[C@H](NC(=O)[C@H](Cc1ccccc1)NC(=O)[C@H](CC(=O)O)NC(=O)[C@H](CCCNC(=N)N)NC(=O)[C@H](C)NC(=O)[C@H](C)NC(=O)[C@H](CC(C)C)NC(=O)[C@H](CC(N)=O)NC(=O)[C@H](CC(=O)O)NC(=O)[C@H](CC(C)C)NC(=O)[C@@H](NC(=O)[C@@H](NC(=O)[C@H](CC(N)=O)NC(=O)[C@H](CCSC)NC(=O)[C@H](CCC(=O)O)NC(=O)[C@H](CC(=O)O)NC(=O)[C@H](CO)NC(=O)[C@H](Cc1ccccc1)NC(=O)[C@H](CO)NC(=O)CNC(=O)[C@H](CC(=O)O)NC(=O)CNC(=O)[C@@H](N)Cc1c[nH]cn1)[C@@H](C)O)[C@@H](C)CC)C(=O)N[C@@H](CC(N)=O)C(=O)N[C@@H](Cc1c[nH]c2ccccc12)C(=O)N[C@@H](CC(C)C)C(=O)N[C@H](C(=O)N[C@@H](CCC(N)=O)C(=O)N[C@H](C(=O)N[C@@H](CCCCN)C(=O)N[C@H](C(=O)N[C@H](C(=O)N[C@@H](CC(=O)O)C(=O)O)[C@@H](C)O)[C@@H](C)CC)[C@@H](C)O)[C@@H](C)CC [teduglutide]
ALT (SGPT) change from baseline >5%, percent of patients (week 12): (21.9%) | ALT (SGPT) change from baseline −5% <= and <=5%, number of patients (week 12): 2 | ALT (SGPT) change from baseline −5% <= and <=5%, percent of patients (week 12): (6.3%) | AST (SGOT) change from baseline <−5%, number of patients (week 12): 15 | AST (SGOT) change from baseline <−5%, percent of patients (week 12): (46.9%) | AST (SGOT) change from baseline >5%, number of patients (week 12): 10 | AST (SGOT) change from baseline >5%, percent of patients (week 12): (31.3%) | AST (SGOT) change from baseline −5% <= and <=5%, number of patients (week 12): 3 | AST (SGOT) change from baseline −5% <= and <=5%, percent of patients (week 12): (9.4%) | TOTAL BILIRUBIN change from baseline <−5%, number of patients (week 12): 14 | TOTAL BILIRUBIN change from baseline <−5%, percent of patients (week 12): (43.8%) | TOTAL BILIRUBIN change from baseline >5%, number of patients (week 12): 9 | TOTAL BILIRUBIN change from baseline >5%, percent of patients (week 12): (28.1%) | TOTAL BILIRUBIN change from baseline −5% <= and <=5%, number of patients (week 12): 6 | TOTAL BILIRUBIN change from baseline −5% <= and <=5%, percent of patients (week 12): (18.8%) | ALKALINE PHOSPHATASE change from baseline <−5%, number of patients (week 16): 21 | ALKALINE PHOSPHATASE change from baseline <−5%, percent of patients (week 16): (65.6%) | ALKALINE PHOSPHATASE change from baseline >5%, number of patients (week 16): 7 | ALKALINE PHOSPHATASE change from baseline >5%, percent of patients (week 16): (21.9%) | ALKALINE PHOSPHATASE change from baseline −5% <= and <=5%, number of patients (week 16): 2 | ALKALINE PHOSPHATASE change from baseline −5% <= and <=5%, percent of patients (week 16): (6.3%) | ALT (SGPT) change from baseline <−5%, number of patients (week 16): 19 | ALT (SGPT) change from baseline <−5%, percent of patients (week 16): (59.4%) | ALT (SGPT) change from baseline >5%, number of patients (week 16): 9 | ALT (SGPT) change from baseline >5%, percent of patients (week 16): (28.1%) | ALT (SGPT) change from baseline −5% <= and <=5%, number of patients (week 16): 2 | ALT (SGPT) change from baseline −5% <= and <=5%, percent of patients (week 16): (6.3%) | AST (SGOT) change from baseline <−5%, number of patients (week 16): 18 | AST (SGOT) change from baseline <−5%, percent of patients (week 16): (56.3%) | AST (SGOT) change from baseline >5%, number of patients (week 16): 8 | AST (SGOT) change from baseline >5%, percent of patients (week 16): (25.0%) | AST (SGOT) change from baseline −5% <= and <=5%, number of patients (week 16): 3 | AST (SGOT) change from baseline −5% <= and <=5%, percent of patients (week 16): (9.4%) | TOTAL BILIRUBIN change from baseline <−5%, number of patients (week 16): 14 | TOTAL BILIRUBIN change from baseline <−5%, percent of patients (week 16): (43.8%) | TOTAL BILIRUBIN change from baseline >5%, number of patients (week 16): 6 | TOTAL BILIRUBIN change from baseline >5%, percent of patients (week 16): (18.8%) | TOTAL BILIRUBIN change from baseline −5% <= and <=5%, number of patients (week 16): 8 | TOTAL BILIRUBIN change from baseline −5% <= and <=5%, percent of patients (week 16): (25.0%) | ALKALINE PHOSPHATASE change from baseline <−5%, number of patients (week 20): 19 | ALKALINE PHOSPHATASE change from baseline <−5%, percent of patients (week 20): (59.4%) | ALKALINE PHOSPHATASE change from baseline >5%, number of patients (week 20): 9 | ALKALINE PHOSPHATASE change from baseline >5%, percent of patients (week 20): (28.1%) | ALKALINE PHOSPHATASE change from baseline −5% <= and <=5%, number of patients (week 20): 1 | ALKALINE PHOSPHATASE change from baseline −5% <= and <=5%, percent of patients (week 20): (3.1%) | ALT (SGPT) change from baseline <−5%, number of patients (week 20): 19 | ALT (SGPT) change from baseline <−5%, percent of patients (week 20): (59.4%) | ALT (SGPT) change from baseline >5%, number of patients (week 20): 8 | ALT (SGPT) change from baseline >5%, percent of patients (week 20): (25.0%) | ALT (SGPT) change from baseline −5% <= and <=5%, number of patients (week 20): 2 | ALT (SGPT) change from baseline −5% <= and <=5%, percent of patients (week 20): (6.3%) | AST (SGOT) change from baseline <−5%, number of patients (week 20): 16 | AST (SGOT) change from baseline <−5%, percent of patients (week 20): (50.0%) | AST (SGOT) change from baseline >5%, number of patients (week 20): 9 | AST (SGOT) change from baseline >5%, percent of patients (week 20): (28.1%) | AST (SGOT) change from baseline −5% <= and <=5%, number of patients (week 20): 3 | AST (SGOT) change from baseline −5% <= and <=5%, percent of patients (week 20): (9.4%) | TOTAL BILIRUBIN change from baseline <−5%, number of patients (week 20): 14 | TOTAL BILIRUBIN change from baseline <−5%, percent of patients (week 20): (43.8%) | TOTAL BILIRUBIN change from baseline >5%, number of patients (week 20): 9 | TOTAL BILIRUBIN change from baseline >5%, percent of patients (week 20): (28.1%) | TOTAL BILIRUBIN change from baseline −5% <= and <=5%, number of patients (week 20): 6 | TOTAL BILIRUBIN change from baseline −5% <= and <=5%, percent of patients (week 20): (18.8%) | ALKALINE PHOSPHATASE change from baseline <−5%, number of patients (week 24): 20 | ALKALINE PHOSPHATASE change from baseline <−5%, percent of patients (week 24): (62.5%) | ALKALINE PHOSPHATASE change from baseline >5%, number of patients (week 24): 5 | ALKALINE PHOSPHATASE change from baseline >5%, percent of patients (week 24): (15.6%) | ALKALINE PHOSPHATASE change from baseline −5% <= and <=5%, number of patients (week 24): 4 | ALKALINE PHOSPHATASE change from baseline −5% <= and <=5%, percent of patients (week 24): (12.5%) | ALT (SGPT) change from baseline <−5%, number of patients (week 24): 18 | ALT (SGPT) change from baseline <−5%, percent of patients (week 24): (56.3%) | ALT (SGPT) change from baseline >5%, number of patients (week 24): 11 | ALT (SGPT) change from baseline >5%, percent of patients (week 24): (34.4%) | ALT (SGPT) change from baseline −5% <= and <=5%, number of patients (week 24): 0 | ALT (SGPT) change from baseline −5% <= and <=5%, percent of patients (week 24): (0.0%) | AST (SGOT) change from baseline <−5%, number of patients (week 24): 15 | AST (SGOT) change from baseline <−5%, percent of patients (week 24): (46.9%) | AST (SGOT) change from baseline >5%, number of patients (week 24): 11 | AST (SGOT) change from baseline >5%, percent of patients (week 24): (34.4%) | AST (SGOT) change from baseline −5% <= and <=5%, number of patients (week 24): 3 | AST (SGOT) change from baseline −5% <= and <=5%, percent of patients (week 24): (9.4%) | TOTAL BILIRUBIN change from baseline <−5%, number of patients (week 24): 11 | TOTAL BILIRUBIN change from baseline <−5%, percent of patients (week 24): (34.4%) | TOTAL BILIRUBIN change from baseline >5%, number of patients (week 24): 10 | TOTAL BILIRUBIN change from baseline >5%, percent of patients (week 24): (31.3%) | TOTAL BILIRUBIN change from baseline −5% <= and <=5%, number of patients (week 24): 6 | TOTAL BILIRUBIN change from baseline −5% <= and <=5%, percent of patients (week 24): (18.8%) | fraction of individuals with a decrease of more than 5% in ALT vs placebo (beginning at 4 weeks after the commencement of treatment): greater fraction of individuals experiencing a decrease of more than 5% | ALT and AST change from baseline in patients with abnormal baseline values (FIGS. 5 and 7) (compared to baseline and compared to placebo): statistically significant improvements | average level of ALP relative to baseline (FIG. 4) (groups receiving teduglutide): decreased relative to baseline for the entire period of the study | percent of individuals with an increase of greater than 5% in ALP or ALT vs placebo (groups receiving teduglutide): effective prophylactic against increases in biomarkers associated with liver dysfunction | individuals experiencing a decrease in ALP greater than 5% from baseline (groups receiving teduglutide, within 4 weeks of the beginning of treatment): roughly 60% | average decrease in level of ALT compared to baseline (FIG. 1) (groups receiving teduglutide, maintained for the entire duration of the study): about 10 U/L

— patent publication US20130157954A1, “METHODS FOR TREATMENT OR PROPHYLAXIS OF KIDNEY OR LIVER DYSFUNCTION” (NPS PHARMACEUTICALS, INC., priority 2010, published 2013)
